According to PubChem BioAssay (NCI):
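Cells were grown in 96-well plates and exposed to each compound for 48 hours at five concentrations; endpoints were interpolated linearly between bracketing concentrations, or set to the highest concentration if not reached. TGI is the concentration that stops growth completely.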

Tests used:
Assay in all cases: growth of human tumour cells (NCI), 48 h
DU-145 prostate = tested on: DU-145 prostate
OVCAR-5 ovarian = tested on: OVCAR-5 ovarian
HL-60(TB) leukemia = tested on: HL-60(TB) leukemia
NCI/ADR-RES ovarian = tested on: NCI/ADR-RES ovarian
MDA-MB-435 = tested on: MDA-MB-435
SF-539 CNS = tested on: SF-539 CNS
SW-620 colon = tested on: SW-620 colon
K-562 leukemia = tested on: K-562 leukemia
SK-MEL-2 melanoma = tested on: SK-MEL-2 melanoma
RPMI-8226 leukemia = tested on: RPMI-8226 leukemia
MCF7 breast = tested on: MCF7 breast
ACHN renal = tested on: ACHN renal
M14 melanoma = tested on: M14 melanoma
SF-295 CNS = tested on: SF-295 CNS
PC-3 prostate = tested on: PC-3 prostate
SK-OV-3 ovarian = tested on: SK-OV-3 ovarian
UO-31 renal = tested on: UO-31 renal
OVCAR-3 ovarian = tested on: OVCAR-3 ovarian
MALME-3M melanoma = tested on: MALME-3M melanoma
KM12 colon = tested on: KM12 colon
MDA-MB-231 breast = tested on: MDA-MB-231 breast
LOX IMVI melanoma = tested on: LOX IMVI melanoma
NCI-H522 lung = tested on: NCI-H522 lung
IGROV1 ovarian = tested on: IGROV1 ovarian
HCT-116 colon = tested on: HCT-116 colon
TK-10 renal = tested on: TK-10 renal
HCC-2998 colon = tested on: HCC-2998 colon
A498 renal = tested on: A498 renal
HCT-15 colon = tested on: HCT-15 colon
HOP-92 NSCLC = tested on: HOP-92 NSCLC
NCI-H460 lung = tested on: NCI-H460 lung
RXF 393 renal = tested on: RXF 393 renal
SN12C renal = tested on: SN12C renal
MOLT-4 leukemia = tested on: MOLT-4 leukemia
OVCAR-8 ovarian = tested on: OVCAR-8 ovarian
SK-MEL-5 melanoma = tested on: SK-MEL-5 melanoma
CCRF-CEM leukemia = tested on: CCRF-CEM leukemia
SR leukemia = tested on: SR leukemia
NCI-H23 lung = tested on: NCI-H23 lung
CAKI-1 renal = tested on: CAKI-1 renal
OVCAR-4 ovarian = tested on: OVCAR-4 ovarian
MDA-N = tested on: MDA-N
HT29 colon = tested on: HT29 colon
SK-MEL-28 melanoma = tested on: SK-MEL-28 melanoma
SNB-75 CNS = tested on: SNB-75 CNS
EKVX NSCLC = tested on: EKVX NSCLC
NCI-H226 lung = tested on: NCI-H226 lung
HOP-62 NSCLC = tested on: HOP-62 NSCLC
T-47D breast = tested on: T-47D breast
COLO 205 colon = tested on: COLO 205 colon
HS 578T breast = tested on: HS 578T breast
786-0 renal = tested on: 786-0 renal
A549 NSCLC = tested on: A549 NSCLC
UACC-257 melanoma = tested on: UACC-257 melanoma
BT-549 breast = tested on: BT-549 breast
SF-268 CNS = tested on: SF-268 CNS
U251 CNS = tested on: U251 CNS
UACC-62 melanoma = tested on: UACC-62 melanoma
SNB-19 CNS = tested on: SNB-19 CNS

Compound: COc1cccc(N=Cc2cc(OC)c(OC)c(OC)c2)c1
- TGI (DU-145 prostate): > 100 µM
- TGI (OVCAR-5 ovarian): > 100 µM
- TGI (HL-60(TB) leukemia): > 100 µM
- TGI (NCI/ADR-RES ovarian): > 100 µM
- TGI (MDA-MB-435): > 100 µM
- TGI (SF-539 CNS): > 100 µM
- TGI (SW-620 colon): > 100 µM
- TGI (K-562 leukemia): > 100 µM
- TGI (SK-MEL-2 melanoma): > 100 µM
- TGI (RPMI-8226 leukemia): > 100 µM
- TGI (MCF7 breast): > 100 µM
- TGI (ACHN renal): > 100 µM
- TGI (M14 melanoma): > 100 µM
- TGI (SF-295 CNS): > 100 µM
- TGI (PC-3 prostate): > 100 µM
- TGI (SK-OV-3 ovarian): > 100 µM
- TGI (UO-31 renal): > 100 µM
- TGI (OVCAR-3 ovarian): > 100 µM
- TGI (MALME-3M melanoma): > 100 µM
- TGI (KM12 colon): > 100 µM
- TGI (MDA-MB-231 breast): > 100 µM
- TGI (LOX IMVI melanoma): > 100 µM
- TGI (NCI-H522 lung): > 100 µM
- TGI (IGROV1 ovarian): > 100 µM
- TGI (HCT-116 colon): > 100 µM
- TGI (TK-10 renal): > 100 µM
- TGI (HCC-2998 colon): > 100 µM
- TGI (A498 renal): > 100 µM
- TGI (HCT-15 colon): > 100 µM
- TGI (HOP-92 NSCLC): > 100 µM
- TGI (NCI-H460 lung): > 100 µM
- TGI (RXF 393 renal): > 100 µM
- TGI (SN12C renal): > 100 µM
- TGI (MOLT-4 leukemia): > 100 µM
- TGI (OVCAR-8 ovarian): > 100 µM
- TGI (SK-MEL-5 melanoma): > 100 µM
- TGI (CCRF-CEM leukemia): > 100 µM
- TGI (SR leukemia): > 100 µM
- TGI (NCI-H23 lung): > 100 µM
- TGI (CAKI-1 renal): > 100 µM
- TGI (OVCAR-4 ovarian): > 100 µM
- TGI (MDA-N): > 100 µM
- TGI (HT29 colon): > 100 µM
- TGI (SK-MEL-28 melanoma): > 100 µM
- TGI (SNB-75 CNS): > 100 µM
- TGI (EKVX NSCLC): > 100 µM
- TGI (NCI-H226 lung): > 100 µM
- TGI (HOP-62 NSCLC): > 100 µM
- TGI (T-47D breast): > 100 µM
- TGI (COLO 205 colon): > 100 µM
- TGI (HS 578T breast): > 100 µM
- TGI (786-0 renal): > 100 µM
- TGI (A549 NSCLC): > 100 µM
- TGI (UACC-257 melanoma): > 100 µM
- TGI (BT-549 breast): > 100 µM
- TGI (SF-268 CNS): > 100 µM
- TGI (U251 CNS): > 100 µM

Compound: Cc1cc(Cc2cc(Cc3cc(C)cc(C(C)(C)C)c3O)c(C)cc2C)c(O)c(C(C)(C)C)c1
- TGI (DU-145 prostate): 27.6 µM
- TGI (OVCAR-5 ovarian): 42.9 µM
- TGI (HL-60(TB) leukemia): 46.9 µM
- TGI (NCI/ADR-RES ovarian): 42.4 µM
- TGI (MDA-MB-435): 26.2 µM
- TGI (SW-620 colon): 40.8 µM
- TGI (K-562 leukemia): 45 µM
- TGI (SK-MEL-2 melanoma): > 100 µM
- TGI (RPMI-8226 leukemia): 65 µM
- TGI (MCF7 breast): 27.2 µM
- TGI (ACHN renal): 30.3 µM
- TGI (M14 melanoma): 33.8 µM
- TGI (SF-295 CNS): 39.4 µM
- TGI (PC-3 prostate): > 100 µM
- TGI (SK-OV-3 ovarian): 35.6 µM
- TGI (UO-31 renal): 32 µM
- TGI (OVCAR-3 ovarian): 32.9 µM
- TGI (MALME-3M melanoma): 31.7 µM
- TGI (KM12 colon): 34.7 µM
- TGI (MDA-MB-231 breast): > 100 µM
- TGI (LOX IMVI melanoma): 41.9 µM
- TGI (NCI-H522 lung): 34 µM
- TGI (IGROV1 ovarian): 40.5 µM
- TGI (HCT-116 colon): 30 µM
- TGI (TK-10 renal): 55.1 µM
- TGI (HCC-2998 colon): 27.1 µM
- TGI (UACC-62 melanoma): 28.1 µM
- TGI (SNB-19 CNS): 31.9 µM
- TGI (A498 renal): 30.6 µM
- TGI (HCT-15 colon): 42 µM
- TGI (HOP-92 NSCLC): 29.2 µM
- TGI (RXF 393 renal): 24.8 µM
- TGI (SN12C renal): 31.7 µM
- TGI (MOLT-4 leukemia): > 100 µM
- TGI (OVCAR-8 ovarian): 75.4 µM
- TGI (SK-MEL-5 melanoma): 30.2 µM
- TGI (CCRF-CEM leukemia): 48.3 µM
- TGI (SR leukemia): 70.6 µM
- TGI (NCI-H23 lung): 37.9 µM
- TGI (CAKI-1 renal): 42.9 µM
- TGI (OVCAR-4 ovarian): 25.4 µM
- TGI (MDA-N): 35 µM
- TGI (HT29 colon): 34.7 µM
- TGI (SK-MEL-28 melanoma): 37 µM
- TGI (SNB-75 CNS): 23.9 µM
- TGI (EKVX NSCLC): 34.5 µM
- TGI (NCI-H226 lung): 31.5 µM
- TGI (HOP-62 NSCLC): 36.2 µM
- TGI (T-47D breast): 34.8 µM
- TGI (COLO 205 colon): 36.7 µM
- TGI (HS 578T breast): 52 µM
- TGI (786-0 renal): 31.6 µM
- TGI (A549 NSCLC): 30.8 µM
- TGI (UACC-257 melanoma): 34.8 µM
- TGI (BT-549 breast): 40.6 µM
- TGI (SF-268 CNS): 35.4 µM
- TGI (U251 CNS): > 100 µM
